SMILES strings stand for the structures. Structures can show the parent of a compound that is named as a salt.

The experiment has as its target T1, human β3 (Homo sapiens, UniProt P13945).
T1 construct: the full length human β3 gene was obtained from a human genomic library; expressed in transfected cells; host or cells: CHO (Chinese hamster ovary) cells, pcDNA3 vector
Kind of experiment: Human β3-agonist activities (cAMP in CHO cells transfected with human β3 gene). It counts as cell-based. As to conditions: CHO cells expressing human β3; for EC50: cAMP quantitated with EIA kit after 30 minutes, read-out: human β3-agonist activity (ED50); for Emax: read-out: intrinsic activity as compared with Isoproterenol. As for the experimental part:
Human β3-Agonist Activities
Human β3-agonist activities were determined using CHO (Chinese hamster ovary) cells transfected with pcDNA3 (mfd. by Invitrogen) to which human β3 gene had been inserted. Human β3 fragment was first obtained from human adipose tissue cDNA (mfd. by Clonetech) by PCR using the primer of β3 (Krief, et al., J. Clin. Invest., 91, p. 344 (1993)). The human β3 fragment obtained was then used as a probe and then the full length human β3 gene was obtained from a human genomic library (mfd. by Clonetech).
The above cells were cultured in a Ham F-12 medium supplemented with 10% fetal bovine serum (mfd. by Dainippon Pharmaceutical), 400 μg/mL geneticin (Gibco BRL), 100 U/mL penicillin and 100 μg/mL streptomycin. After placing these cells (5×10^5) into a 6-well plate and culturing them for 24 hours, they were allowed to stand on a serum-free Ham F-12 medium for 2 hours. The compound was first dissolved in DMSO, repeatedly diluted by ten times with Ham F-12 supplemented with 1 mM isobutylmethylxanthine and 1 mM ascorbic acid to a final concentration of from 10^−5 to 10^−12 M, and then added to the cells.
After the cells were cultured for 30 minutes, the medium was removed followed by addition of 0.5 mL of an aqueous 1 N sodium hydroxide solution. The medium was allowed to stand for 20 minutes and then 0.5 mL of an aqueous 1 N acetic acid solution was added to the medium. The medium was stirred and centrifuged followed by quantitating cAMP with cAMP EIA kit (mfd. by Cayman). Isoproterenol was purchased from RBI (Research Biochemicals International).

Where [1] appears, read: cAMP, relative to Isoproterenol.

T1 sequence (P13945 whole entry): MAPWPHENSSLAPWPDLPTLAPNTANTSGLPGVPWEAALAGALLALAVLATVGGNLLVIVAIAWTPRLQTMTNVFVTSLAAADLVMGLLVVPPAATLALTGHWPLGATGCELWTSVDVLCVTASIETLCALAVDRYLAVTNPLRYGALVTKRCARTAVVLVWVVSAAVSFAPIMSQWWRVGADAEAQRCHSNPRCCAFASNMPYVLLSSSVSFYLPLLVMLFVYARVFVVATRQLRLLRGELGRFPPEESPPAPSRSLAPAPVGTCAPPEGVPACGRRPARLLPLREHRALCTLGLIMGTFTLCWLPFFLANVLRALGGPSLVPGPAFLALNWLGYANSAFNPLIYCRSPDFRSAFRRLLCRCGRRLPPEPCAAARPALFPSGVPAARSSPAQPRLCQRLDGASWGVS

As for `CS(=O)(=O)Nc1cccc([C@@H](O)CNCCOc2ccc3c(c2)[nH]c2cc(O)ccc23)c1` [Example 2, (R)-N-[3-[2-[2-(7-hydroxy-9H-carbazol-2-yloxy)ethylamino]-1-hydroxyethyl]phenyl]methanesulfonamide Hydrochloride], the EC50 came to 0.8 nM. Also, the Emax under setting [1] was 82%.
On the same counts, the results for `CS(=O)(=O)Nc1cc([C@@H](O)CNCCOc2ccc3c(c2)[nH]c2cc(O)ccc23)ccc1Cl` [Example 3, (R)-N-[2-chloro-5-[2-[2-(7-hydroxy-9H-carbazol-2-yloxy)ethylamino]-1-hydroxyethyl]phenyl]methanesulfonamide Hydrochloride] are 1.5 nM and 75%.
Consider `CC(=O)Nc1ccc2c(c1)[nH]c1cc(OCCNC[C@H](O)c3cccc(NS(C)(=O)=O)c3)ccc12` [Example 8, (R)-N-[3-[2-[2-(7-acetamido-9H-carbazol-2-yloxy)-ethylamino]-1-hydroxyethyl]phenyl]methanesulfonamide Hydrochloride], for which the EC50 came out at 0.35 nM. The Emax under setting [1] was determined as 47%.
`CS(=O)(=O)Nc1cccc([C@@H](O)CNCCOc2ccc3c(c2)[nH]c2cc(N)ccc23)c1` [Example 9, (R)-N-[3-[2-[2-(7-amino-9H-carbazol-2-yloxy)ethylamino]-1-hydroxyethyl]phenyl]methanesulfonamide Dihydrochloride]: the EC50 was determined as 1 nM. The Emax under setting [1] was 102%.
On to `CC(C)(C)C(=O)Oc1ccc2c(c1)[nH]c1cc(OCCNCC(O)c3cccc(NS(C)(=O)=O)c3)ccc12` (stereo not drawn) [Example 10], for which the EC50 came to 2.4 nM. The Emax under setting [1] worked out at 112%.
With `CCN(c1ccc2c(c1)[nH]c1cc(OCCNC[C@H](O)c3cccc(NS(C)(=O)=O)c3)ccc12)S(C)(=O)=O.Cl` [Example 33, (R)-N-[3-[2-[2-[7-(N′-ethyl-N′-methylsulfonylamino)-9H-carbazol-2-yloxy]ethylamino]-1-hydroxyethyl]phenyl]methanesulfonamide Hydrochloride], the EC50 is 0.22 nM. Also, the “intrinsic activity as compared with Isoproterenol” value under setting [1] turned out to be 94%.
For the compound `CS(=O)(=O)Nc1cccc([C@@H](O)CNCCOc2ccc3c(c2)[nH]c2cc(NS(C)(=O)=O)ccc23)c1` [Example 35, (R)-N-[3-[1-hydroxy-2-[2-(7-N′-methylsulfonylamino-9H-carbazol-2-yloxy)ethylamino]ethyl]phenyl]methanesulfonamide Hydrochloride], the EC50 was found to be 0.16 nM. Further, the Emax under setting [1] stood at 96%.
Turning to `COCCOc1ccc2c(c1)[nH]c1cc(OCCNC[C@H](O)c3cccc(NS(C)(=O)=O)c3)ccc12` [Example 43, (R)-N-[3-[1-hydroxy-2-[2-[7-(2-methoxyethoxy)-9H-carbazol-2-yloxy]ethylamino]ethyl]phenyl]methanesulfonamide Hydrochloride], the EC50 amounted to 0.69 nM. Moreover, under setting [1], the Emax came to 114%.
Consider `CS(=O)(=O)Nc1cccc([C@@H](O)CNCCOc2ccc3c(c2)[nH]c2cc(OCC(=O)O)ccc23)c1` [Example 45, (R)-N-[3-[2-[2-(7-hydroxycarbonylmethoxy-9H-carbazol-2-yloxy)ethylamino]-1-hydroxyethyl]phenyl]methanesulfonamide], for which the EC50 is 2.6 nM. Under setting [1], the Emax stood at 114%.

(Values after patent US20030040538A1, “Novel substituted tricyclic compounds” (priority 1999, published 2003).)
